According to patent publication US20240226106A1, “INHIBITORS OF PLASMA KALLIKREIN” (SHIRE HUMAN GENETIC THERAPIES, INC., priority 2021, published 2024):

Columns and labels:
[1] = target: T1, plasma kallikrein (Homo sapiens, UniProt P03952); assay: Neat human plasma assay (fluorogenic peptide), contact pathway-activated plasma; assay type: biochemical; conditions: citrated human plasma, 10 nM human FXIIa activation, 100 μM PFR-AMC, room temperature; read-out: Human Plasma Assay: IC90
T1 construct: from tissue; host or cells: sodium citrate collected human plasma
Procedure: To analyze inhibition of plasma kallikrein in an ex vivo setting, the potency of compounds was measure in contact pathway-activated plasma assays. In a fluorogenic peptide substrate assay, test compounds dissolved in DMSO were added to sodium citrate collected human or rat plasma in a 96-well microplate. Alternatively, citrated plasma was collected from rats administered the compounds orally or by IV. 10 nM of human FXIIa (Enzyme Research Laboratories) diluted in PKa buffer (20 mM Tris-HCl, pH 7.5, 150 mM NaCl, 1 mM EDTA, 0.100 PEG-8000, and 0.1% Triton X-100) was added to the plasma, followed by the 100 μM of the profluorescent, synthetic plasma kallikrein substrate PFR-AMC (also diluted in PKa buffer). Final plasma concentration in the reaction was […]. Fluorescence was immediately monitored by excitation/emission wavelengths of 360 nm/480 nm respectively over a period of 5 minutes in a microplate reader. The resulting linear increase in fluorescence emission (reflecting PKa proteolysis of PFR-AMC substrate) was fit to extract a proteolytic rate (fluorescent units over time), and this rate was subsequently plotted against compound inhibitor concentration. Resulting plots were fit to a standard 4-parameter IC50/C90 equation to determine min/max values, IC50/90, and slope. All experimental steps were performed at room temperature.

[2] = target: human activated kallikrein enzyme (Homo sapiens, UniProt P03952); assay: Inhibition of human activated plasma kallikrein, fluorogenic peptide substrate (PFR-AMC), 500 pM enzyme format; assay type: biochemical; conditions: 500 pM activated kallikrein, 30 min preincubation, 10 min reaction, room temperature, read-out: Primary Dose Response Assay: Average EC50
Summary of the method: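 Enzyme at 500 pM with […] PFR-AMC in 20 mM Tris pH 7.5, 1 mM EDTA, 150 mM NaCl, 0.1% PEG-400, 0.1% Triton X-100. Inhibitor preincubated 30 min, then 10 min reaction at room temperature; AMC fluorescence read at 380 nm excitation/460 nm emission.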

Sequence of human activated kallikrein enzyme (P03952 391-638 limits assumed): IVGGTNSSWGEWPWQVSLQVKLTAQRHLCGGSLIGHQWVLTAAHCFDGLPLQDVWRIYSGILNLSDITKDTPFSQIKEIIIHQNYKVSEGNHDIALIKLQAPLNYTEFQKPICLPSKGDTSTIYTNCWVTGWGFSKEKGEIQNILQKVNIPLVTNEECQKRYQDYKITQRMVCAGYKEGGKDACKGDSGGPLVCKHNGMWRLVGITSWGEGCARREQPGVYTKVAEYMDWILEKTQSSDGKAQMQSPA
Sequence of human activated kallikrein enzyme (P03952 20-390 partner limits assumed): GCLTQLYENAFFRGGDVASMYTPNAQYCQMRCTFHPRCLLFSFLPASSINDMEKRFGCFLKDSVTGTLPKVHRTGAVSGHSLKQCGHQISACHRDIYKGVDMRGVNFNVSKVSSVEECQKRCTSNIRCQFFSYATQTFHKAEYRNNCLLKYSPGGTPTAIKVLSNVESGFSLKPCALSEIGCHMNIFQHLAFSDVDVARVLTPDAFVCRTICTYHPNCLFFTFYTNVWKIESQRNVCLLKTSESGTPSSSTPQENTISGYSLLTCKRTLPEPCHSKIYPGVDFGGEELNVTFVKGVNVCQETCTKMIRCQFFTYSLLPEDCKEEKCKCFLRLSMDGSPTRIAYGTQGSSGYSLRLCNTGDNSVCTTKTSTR
T1 sequence (P03952 391-638 limits assumed): as the sequence (P03952 391-638 limits assumed) above
T1 sequence (P03952 20-390 partner limits assumed): as the sequence (P03952 20-390 partner limits assumed) above

Row | Compound | IC90 [1] | EC50 [2]
1 | O=C(Nc1nccc2nn(Cc3cn4nc(C5CC5)ccc4n3)cc12)[C@H]1C[C@@H]1c1cccc(Cl)c1 [Example 35, (1S,2S)-2-(3-chlorophenyl)-N-(2-((6-cyclopropylimidazo[1,2-b]pyridazin-2-yl)methyl)-2H-pyrazolo[4,3-c]pyridin-4-yl)cyclopropane-1-carboxamide] | 500 to 5000 nM | < 2.5 nM
2 | CN1CCN(c2cc(C3CC3)nn3cc(CNc4cc(NC(=O)[C@H]5C[C@@H]5c5cccc(Cl)c5)ncn4)nc23)CC1 [Example 39, (1S,2S)-2-(3-chlorophenyl)-N-(6-(((6-cyclopropyl-8-(4-methylpiperazin-1-yl)imidazo[1,2-b]pyridazin-2-yl)methyl)amino)pyrimidin-4-yl)cyclopropane-1-carboxamide] | 5000 to 65000 nM | < 2.5 nM
3 | CN1CCN(c2cc(C3CC3)nn3cc(CNc4ccnc(NC(=O)[C@H]5C[C@@H]5c5cccc(Cl)c5)c4)nc23)CC1 [Example 40, (1S,2S)-2-(3-chlorophenyl)-N-(4-(((6-cyclopropyl-8-(4-methylpiperazin-1-yl)imidazo[1,2-b]pyridazin-2-yl)methyl)amino)pyridin-2-yl)cyclopropane-1-carboxamide] | 500 to 5000 nM | < 2.5 nM
4 | CN1CCN(c2cc(C3CC3)cn3nc(CNc4ccnc(NC(=O)[C@H]5C[C@@H]5c5cccc(Cl)c5)c4)nc23)CC1 [Example 45, (1S,2S)-2-(3-chlorophenyl)-N-(4-(((6-cyclopropyl-8-(4-methylpiperazin-1-yl)-[1,2,4]triazolo[1,5-a]pyridin-2-yl)methyl)amino)pyridin-2-yl)cyclopropane-1-carboxamide] | 5000 to 65000 nM | < 2.5 nM
5 | O=C(Nc1cc(NCc2cn3nc(C4CC4)ccc3n2)ccn1)[C@H]1C[C@@H]1c1cccc(Cl)c1 [Example 46, (1S,2S)-2-(3-chlorophenyl)-N-(4-(((6-cyclopropylimidazo[1,2-b]pyridazin-2-yl)methyl)amino)pyridin-2-yl)cyclopropane-1-carboxamide] | 5000 to 65000 nM | < 2.5 nM
6 | O=C(Nc1cc(NCc2cc3cc(C4CC4)cc(N4CCOC4=O)n3n2)ncn1)[C@H]1C[C@@H]1c1cccc(Cl)c1 [Example 49, (1S,2S)-2-(3-chlorophenyl)-N-(6-(((5-cyclopropyl-7-(2-oxooxazolidin-3-yl)pyrazolo[1,5-a]pyridin-2-yl)methyl)amino)pyrimidin-4-yl)cyclopropane-1-carboxamide] | 500 to 5000 nM | < 2.5 nM
7 | O=C(Nc1cc(NCc2cc3cc(C4CC4)cc(N4CCCC4=O)n3n2)ncn1)[C@H]1C[C@@H]1c1cccc(Cl)c1 [Example 52, (1S,2S)-2-(3-chlorophenyl)-N-(6-(((5-cyclopropyl-7-(2-oxopyrrolidin-1-yl)pyrazolo[1,5-a]pyridin-2-yl)methyl)amino)pyrimidin-4-yl)cyclopropane-1-carboxamide] | 500 to 5000 nM | 2.5 to 25 nM
8 | CN1CCN(c2cc(C3CC3)cc3cc(CNc4cc(NC(=O)[C@H]5C[C@@H]5c5cccc(Cl)c5)ncn4)nn23)CC1 [Example 53, (1S,2S)-2-(3-chlorophenyl)-N-(6-(((5-cyclopropyl-7-(4-methylpiperazin-1-yl)pyrazolo[1,5-a]pyridin-2-yl)methyl)amino)pyrimidin-4-yl)cyclopropane-1-carboxamide] | 500 to 5000 nM | < 2.5 nM
9 | CN1CCN(c2cc(C3CC3)cc3cc(CNc4ccnc(NC(=O)[C@H]5C[C@@H]5c5cccc(Cl)c5)c4)nn23)CC1 [Example 54, (1S,2S)-2-(3-chlorophenyl)-N-(4-(((5-cyclopropyl-7-(4-methylpiperazin-1-yl)pyrazolo[1,5-a]pyridin-2-yl)methyl)amino)pyridin-2-yl)cyclopropane-1-carboxamide] | 500 to 5000 nM | < 2.5 nM
10 | O=C(Nc1cc(N2C[C@@H](O)C[C@@H]2c2cn3nc(C4CC4)ccc3n2)ncn1)[C@H]1C[C@@H]1c1cccc(Cl)c1 [Example 60, (1S,2S)-2-(3-chlorophenyl)-N-(6-((2R,4S)-2-(6-cyclopropylimidazo[1,2-b]pyridazin-2-yl)-4-hydroxypyrrolidin-1-yl)pyrimidin-4-yl)cyclopropane-1-carboxamide] | 500 to 5000 nM | 2.5 to 25 nM
11 | O=C(Nc1cc(N2C[C@@H](O)C[C@@H]2c2cn3nc(C4CC4)ccc3n2)ncn1)[C@H]1C[C@@H]1c1cc(Cl)ccn1 [Example 61, (1S,2S)-2-(4-chloropyridin-2-yl)-N-(6-((2R,4S)-2-(6-cyclopropylimidazo[1,2-b]pyridazin-2-yl)-4-hydroxypyrrolidin-1-yl)pyrimidin-4-yl)cyclopropane-1-carboxamide] | 500 to 5000 nM | < 2.5 nM
12 | CN1C(=O)CN(c2cc(C3CC3)nn3cc(CNc4cc(NC(=O)[C@H]5C[C@@H]5c5cc(Cl)ccn5)ncn4)nc23)C1=O [Example 63, (1S,2S)-2-(4-chloropyridin-2-yl)-N-(6-(((6-cyclopropyl-8-(3-methyl-2,4-dioxoimidazolidin-1-yl)imidazo[1,2-b]pyridazin-2-yl)methyl)amino)pyrimidin-4-yl)cyclopropane-1-carboxamide] | 500 to 5000 nM | < 2.5 nM
13 | O=C(Nc1cc(NCc2cn3cc(C4CC4)cnc3n2)ncn1)[C@H]1C[C@@H]1c1cc(Cl)ccn1 [Example 66, (1S,2S)-2-(4-chloropyridin-2-yl)-N-(6-(((6-cyclopropylimidazo[1,2-a]pyrimidin-2-yl)methyl)amino)pyrimidin-4-yl)cyclopropane-1-carboxamide] | 500 to 5000 nM | < 2.5 nM
14 | O=C(Nc1cc(N2C[C@@H](O)C[C@@H]2c2cn3cc(C4CC4)cnc3n2)ncn1)[C@H]1C[C@@H]1c1cc(Cl)ccn1 [Example 73, (1S,2S)-2-(4-chloropyridin-2-yl)-N-(6-((2R,4S)-2-(6-cyclopropylimidazo[1,2-a]pyrimidin-2-yl)-4-hydroxypyrrolidin-1-yl)pyrimidin-4-yl)cyclopropane-1-carboxamide] | < 500 nM | < 2.5 nM
15 | Cc1ccnc([C@H]2C[C@@H]2C(=O)Nc2cc(N(C)Cc3cn4cc(C5CC5)nc(N5CC(=O)N(C)C5=O)c4n3)ncn2)n1 [Example 83, (1S,2S)—N-(6-(((6-cyclopropyl-8-(3-methyl-2,4-dioxoimidazolidin-1-yl)imidazo[1,2-a]pyrazin-2-yl)methyl)(methyl)amino)pyrimidin-4-yl)-2-(4-methylpyrimidin-2-yl)cyclopropane-1-carboxamide] | < 500 nM | < 2.5 nM
16 | Cc1ccnc([C@H]2C[C@@H]2C(=O)Nc2cc(N(C)Cc3cn4cc(C5CC5)nc(N5CCCC5=O)c4n3)ncn2)n1 [Example 85, (1S,2S)—N-(6-(((6-cyclopropyl-8-(2-oxopyrrolidin-1-yl)imidazo[1,2-a]pyrazin-2-yl)methyl)(methyl)amino)pyrimidin-4-yl)-2-(4-methylpyrimidin-2-yl)cyclopropane-1-carboxamide] | < 500 nM | < 2.5 nM
17 | Cc1ccnc([C@H]2C[C@@H]2C(=O)Nc2cc(N(C)Cc3nc4cc(C5CC5)cc(N5CC(=O)N(C)C5=O)c4[nH]3)nc(C)n2)n1 [Example 86, (S,2S)—N-(6-(((5-cyclopropyl-7-(3-methyl-2,4-dioxoimidazolidin-1-yl)-1H-benzo[d]imidazol-2-yl)methyl)(methyl)amino)-2-methylpyrimidin-4-yl)-2-(4-methylpyrimidin-2-yl)cyclopropane-1-carboxamide] | 500 to 5000 nM | < 2.5 nM
18 | Cc1ccnc([C@H]2C[C@@H]2C(=O)Nc2nc(C)nc(OCc3cn4cc(C5CC5)nc(N5CC(=O)N(C)C5=O)c4n3)n2)n1 [Example 87, (1S,2S)—N-(4-((6-cyclopropyl-8-(3-methyl-2,4-dioxoimidazolidin-1-yl)imidazo[1,2-a]pyrazin-2-yl)methoxy)-6-methyl-1,3,5-triazin-2-yl)-2-(4-methylpyrimidin-2-yl)cyclopropane-1-carboxamide] | 500 to 5000 nM | < 2.5 nM
19 | Cc1ccnc([C@H]2C[C@@H]2C(=O)Nc2cc(N(C)Cc3cn4cc(C5CC5)cnc4n3)nc(C)n2)n1 [Example 90, (1S,2S)—N-(6-(((6-cyclopropylimidazo[1,2-a]pyrimidin-2-yl)methyl)(methyl)amino)-2-methylpyrimidin-4-yl)-2-(4-methylpyrimidin-2-yl)cyclopropane-1-carboxamide] | 5000 to 65000 nM | < 2.5 nM
20 | Cc1ccnc([C@H]2C[C@@H]2C(=O)Nc2cc(NCc3ccc4ncc(C5CC5)cc4c3)ncn2)n1 [Example 93, (1S,2S)—N-(6-(((3-cyclopropylquinolin-6-yl)methyl)amino)pyrimidin-4-yl)-2-(4-methylpyrimidin-2-yl)cyclopropane-1-carboxamide] | < 500 nM | < 2.5 nM
21 | Cc1ccnc([C@H]2C[C@@H]2C(=O)Nc2cc(OCc3cn4cc(C5CC5)cnc4n3)cnn2)n1 [Example 94, (1S,2S)—N-(5-((6-cyclopropylimidazo[1,2-a]pyrimidin-2-yl)methoxy)pyridazin-3-yl)-2-(4-methylpyrimidin-2-yl)cyclopropane-1-carboxamide] | < 500 nM | < 2.5 nM
